The values below come from US7932281B2, “Amine-based compound and use thereof” (Kureha Corporation, priority 2004, dated 2011).

Data set [1] can be described thus: Conversion of Compound No. 91 to Compound No. 84 in human serum, LCMS (Test Example 5). The format is in vitro ADME. The conditions noted are these: for Proportion found by LCMS, Human, 0 minutes / Proportion found by LCMS, Human, 30 minutes: Compound No. 91 incubated in human serum/saline. Here is the method:
(§1) 147 μl of human serum pool (manufactured by Cosmo Bio Co. Ltd.) or pool serum obtained by centrifugation (3,500 rpm for 10 minutes) of whole blood collected from a Crj:CD (SD) IGS male rat (manufactured by Charles River Laboratories Japan, INC.) was dispensed in a tube. 147 μl of a physiological saline solution (manufactured by Hikari Pharmaceutical Co., Ltd.) was dispensed thereto. Subsequently, the whole was preincubated for 3 minutes. The solution was added and mixed with a solution (3 μl) obtained by: diluting a 25 mmol/l DMSO solution containing the Compound No. 91 with a physiological saline solution to adjust to 500 μmol/l. The reaction was allowed to start in a thermomixer. After 30 minutes later, the solution was added with 0.1% formic acid/methanol solution (600 μl) and the whole was mixed. The solution was subjected to centrifugation (15,000 rpm for 5 minutes) and the supernatant was subjected to LCMS (liquid chromatograph mass spectrometry) measurement.

The test system of data set [2] is SD mice. The experiment in a line: Acute toxicity, single transvenous administration (Test Example 3). Format: in vivo. The following applies: 6-week-old male SD mice, 2.5 mg/kg transvenously once in physiological saline. The protocol:
The aforementioned compound was examined for acute toxicity. Specifically, 6-week-old SD mice (male) were divided into several groups (2 to 3 mice in each group). Subsequently, each of the compounds of Examples was dissolved in a physiological saline solution, and the solution was transvenously administered to the mice (dose: 2.5 mg/kg) once. Then, the number of dead mice was counted.

Data set [3] is described as follows: Conversion of Compound No. 91 to Compound No. 84 in rat serum, LCMS (Test Example 5). The format is in vitro ADME. The conditions noted are these: for Proportion found by LCMS, Rat, 0 minutes / Proportion found by LCMS, Rat, 30 minutes: Compound No. 91 incubated in rat serum/saline. Here is the method:
as §1

Data set [4] deals with HIV-1IIIB infected MT-4 cells. Description: Anti-HIV activity, HIV-1IIIB infected MT-4 cells, MTT method (Test Example 1). Format: cell-based. The conditions noted are these: Human immunodeficiency virus 1, MT4, 120 h, concentration required for inhibition of cell disorder due to HIV infection by 50%, MOI 0.01, 5 days. The protocol:
Immediately after infection, HIV-1IIIB infected MT-4 cells (3.0×10^4/well, MOI (Multiplicity of infection): 0.01) were added to a 96-well microtiter plate together with the test compounds having different concentrations. The cells were cultured in a carbon dioxide incubator at 37° C. for 5 days, and the number of living cells was measured in accordance with the MTT (tetrazolium) method ([…], et al., J. of Virol. Method, 20, 309-321 […]). The antiviral activity is represented by the concentration required for inhibition of cell disorder due to HIV infection by 50% (EC50: 50% Effective Concentration) (μM), and the results are shown in Table 2.
A general note: Tetrazolium assays rely on reduction of a dye to a coloured formazan, in cell work by metabolically active cells.

Data set [5] deals with T1, CXCR4 (Homo sapiens, UniProt P61073).
T1 construct: endogenous in cells; host or cells: MT-4 cells
T1 sequence (P61073 whole entry): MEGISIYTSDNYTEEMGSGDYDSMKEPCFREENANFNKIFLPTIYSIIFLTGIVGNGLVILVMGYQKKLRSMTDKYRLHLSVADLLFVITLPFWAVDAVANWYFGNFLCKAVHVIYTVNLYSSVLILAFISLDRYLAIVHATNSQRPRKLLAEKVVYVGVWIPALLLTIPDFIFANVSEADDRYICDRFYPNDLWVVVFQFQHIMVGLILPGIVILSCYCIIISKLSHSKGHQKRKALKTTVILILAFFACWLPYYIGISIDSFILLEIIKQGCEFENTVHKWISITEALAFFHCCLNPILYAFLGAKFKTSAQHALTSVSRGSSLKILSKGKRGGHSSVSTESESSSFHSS
Description: Inhibition of 125I-SDF-1α binding to receptors CXCR4 on MT-4 cells (Test Example 2). The conditions noted are these: binding-inhibition % at 0.01 μM, 2 hours under ice-cooling, read-out: Inhibition rate (%). Here is the method: MT-4 cells (5×10^6/0.2 ml/well) were cultured on a 24-well microtiter plate. After the cells were incubated for 24 hours at 37° C. in a carbon dioxide gas incubator, a culture medium was replaced with a buffer solution (0.1% BSA-containing RPMI-1640). Together with a ligand ^125I-SDF-1α (specific activity: 2,200 Ci/mmol; available from Daiichi Pure Chemicals Co., Ltd. (Tokyo)), test materials with various concentrations were subjected to a binding reaction for 2 hours under ice-cooling. […] Then, a rate of inhibition of the binding between radioactive ligands and receptors CXCR4 by a test material was calculated (a binding-inhibition % at 0.01 μM).

pEC50: −log10 of the molar value.

Take `CCCN(CCC)CCCCN(CC(=O)OCC)Cc1ccc(CN(Cc2ncc[nH]2)Cc2nccn2C)cc1` [Compound No. 91]: the “Proportion found by LCMS, Human, 0 minutes” value in data set [1] turned out to be 99%. The “Proportion found by LCMS, Human, 30 minutes” value in data set [1] (30 minutes) is 20%. In addition, the “conversion of prodrug in serum” value in data set [1] (human serum, 30 minutes) is reported as “converted to the Compound No. 84”; in data set [3] (rat serum, 30 minutes) it was “converted to the Compound No. 84”. Besides, the Dead mice/test mice in data set [2] is given as 0/3. Also, the “Proportion found by LCMS, Rat, 0 minutes” value in data set [3] came out at 76%. In addition, the “Proportion found by LCMS, Rat, 30 minutes” value in data set [3] (30 minutes) came to 0%. Besides, the pEC50 in data set [4] was 8.52. In addition, the inhibition at 0.01 µM in data set [5] turned out to be 87.7%.

In the case of `CCCN(CCC)CCCCN1CCc2cc(CN(Cc3ncc[nH]3)Cc3nccn3C)ccc2C1` [Compound No. 17, [4-(6-{[(1H-imidazol-2-ylmethyl)-(1-methyl-1H-imidazol-2-ylmethyl)-amino]-methyl}-3,4-dihydro-1H-isoquinolin-2-yl)-butyl]-dipropyl-amine], in data set [2], the Dead mice/test mice is listed as 0/3. Also, in data set [4], the pEC50 is 8.52. Besides, in data set [5], the inhibition at 0.01 µM stood at 93.5%.

Consider `CCCN(CCC)CCCCN(CC(=O)O)Cc1ccc(CN(Cc2ncc[nH]2)Cc2nccn2C)cc1` [Compound No. 84, [(4-dipropylamino-butyl)-(4-[[(1H-imidazol-2-ylmethyl)-(1-methyl-1H-imidazol-2-ylmethyl)-amino]-methyl]-benzyl)-amino]-acetic acid], for which, in data set [1], the “Proportion found by LCMS, Human, 0 minutes” value stood at 1%. Moreover, the “Proportion found by LCMS, Human, 30 minutes” value in data set [1] (30 minutes) came out at 80%. The Dead mice/test mice in data set [2] is recorded as 0/3. For the same compound, in data set [3], the “Proportion found by LCMS, Rat, 0 minutes” value came to 24%. Besides, the “Proportion found by LCMS, Rat, 30 minutes” value in data set [3] (30 minutes) is recorded as 100%. The pEC50 in data set [4] is 8.52. The inhibition at 0.01 µM in data set [5] is 88.3%.

Usually pEC50 stands for the EC50 on a negative log10 scale, so that one unit is a factor of ten. Low values mean a large EC50, high ones a small EC50. Broadly, the inhibition is the drop in the measured response relative to a control, in per cent.
